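The compound was tested at five concentrations on cells cultured in 96-well plates, with a 48-hour exposure period. TGI marks complete inhibition of growth.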
Key:
Test in all cases: inhibition of tumour cell growth, NCI panel, 48 h
KM12 colon = tested on: KM12 colon
EKVX NSCLC = tested on: EKVX NSCLC
K-562 leukemia = tested on: K-562 leukemia
HCC-2998 colon = tested on: HCC-2998 colon
TK-10 renal = tested on: TK-10 renal
UACC-257 melanoma = tested on: UACC-257 melanoma
HOP-92 NSCLC = tested on: HOP-92 NSCLC
SR leukemia = tested on: SR leukemia
IGROV1 ovarian = tested on: IGROV1 ovarian
HL-60(TB) leukemia = tested on: HL-60(TB) leukemia
NCI-H226 lung = tested on: NCI-H226 lung
SW-620 colon = tested on: SW-620 colon
SNB-75 CNS = tested on: SNB-75 CNS
LOX IMVI melanoma = tested on: LOX IMVI melanoma
OVCAR-3 ovarian = tested on: OVCAR-3 ovarian
MALME-3M melanoma = tested on: MALME-3M melanoma
SNB-78 CNS = tested on: SNB-78 CNS
NCI-H460 lung = tested on: NCI-H460 lung
MCF7 breast = tested on: MCF7 breast
T-47D breast = tested on: T-47D breast

| Structure (SMILES) | TGI (KM12 colon) [µM] | TGI (EKVX NSCLC) [µM] | TGI (K-562 leukemia) [µM] | TGI (HCC-2998 colon) [µM] | TGI (TK-10 renal) [µM] | TGI (UACC-257 melanoma) [µM] | TGI (HOP-92 NSCLC) [µM] | TGI (SR leukemia) [µM] | TGI (IGROV1 ovarian) [µM] | TGI (HL-60(TB) leukemia) [µM] | TGI (NCI-H226 lung) [µM] | TGI (SW-620 colon) [µM] | TGI (SNB-75 CNS) [µM] | TGI (LOX IMVI melanoma) [µM] | TGI (OVCAR-3 ovarian) [µM] | TGI (MALME-3M melanoma) [µM] | TGI (SNB-78 CNS) [µM] | TGI (NCI-H460 lung) [µM] | TGI (MCF7 breast) [µM] | TGI (T-47D breast) [µM] |
| --- | --- | --- | --- | --- | --- | --- | --- | --- | --- | --- | --- | --- | --- | --- | --- | --- | --- | --- | --- | --- |
| COc1ccc(NC(=O)c2oc3cc(O)ccc3c(=O)c2C)c([N+](=O)[O-])c1 | > 100 | > 100 | > 100 | > 100 | > 100 | > 100 | > 100 | > 100 | > 100 | > 100 | > 100 | > 100 | > 100 | > 100 | > 100 | > 100 | > 100 | > 100 | – | – |
| Cc1cc(N(CCC#N)CCC#N)ccc1/C=C(\NC(=O)/C=C/c1ccccc1)C(=O)Nc1ccc(Cl)cc1 | > 94 | > 100 | > 100 | > 58.7 | > 100 | > 100 | > 100 | > 100 | > 100 | > 100 | > 100 | > 100 | > 100 | > 100 | > 100 | > 50.9 | > 100 | > 100 | > 100 | > 100 |

— PubChem BioAssay (NCI)
